Source: the kinase profiling compilation of Christmann-Franck et al. (2016)

How the values were obtained:
Assay in all cases: KINOMEscan competition binding
Conditions in all cases: compound 10.0 µM
AAK1 (human) = AAK1 (human) (UniProt Q2M2I8)
AKT3 (human) = AKT3 (human) (UniProt Q9Y243)
ANKK1 (human) = ANKK1 (human) (UniProt Q8NFD2)
BLK (human) = BLK (human) (UniProt P51451)
BMPR1B (human) = BMPR1B (human) (UniProt O00238)
CAMK2D (human) = CAMK2D (human) (UniProt Q13557)
CAMKK2 (human) = CAMKK2 (human) (UniProt Q96RR4)
CDC2L2 (human) = CDC2L2 (human) (UniProt Q9UQ88)
CDK17 (human) = CDK17 (human) (UniProt Q00537)
CHEK1 (human) = CHEK1 (human) (UniProt O14757)
CLK1 (human) = CLK1 (human) (UniProt P49759)
CSNK1G1 (human) = CSNK1G1 (human) (UniProt Q9HCP0)
DMPK (human) = DMPK (human) (UniProt Q09013)
[1] = tested on: EIF2AK4 KD2 (human), Q9P2K8 [S808G]
EPHB2 (human) = EPHB2 (human) (UniProt P29323)
EPHB2 (human), sequence (P29323 whole entry, looked up): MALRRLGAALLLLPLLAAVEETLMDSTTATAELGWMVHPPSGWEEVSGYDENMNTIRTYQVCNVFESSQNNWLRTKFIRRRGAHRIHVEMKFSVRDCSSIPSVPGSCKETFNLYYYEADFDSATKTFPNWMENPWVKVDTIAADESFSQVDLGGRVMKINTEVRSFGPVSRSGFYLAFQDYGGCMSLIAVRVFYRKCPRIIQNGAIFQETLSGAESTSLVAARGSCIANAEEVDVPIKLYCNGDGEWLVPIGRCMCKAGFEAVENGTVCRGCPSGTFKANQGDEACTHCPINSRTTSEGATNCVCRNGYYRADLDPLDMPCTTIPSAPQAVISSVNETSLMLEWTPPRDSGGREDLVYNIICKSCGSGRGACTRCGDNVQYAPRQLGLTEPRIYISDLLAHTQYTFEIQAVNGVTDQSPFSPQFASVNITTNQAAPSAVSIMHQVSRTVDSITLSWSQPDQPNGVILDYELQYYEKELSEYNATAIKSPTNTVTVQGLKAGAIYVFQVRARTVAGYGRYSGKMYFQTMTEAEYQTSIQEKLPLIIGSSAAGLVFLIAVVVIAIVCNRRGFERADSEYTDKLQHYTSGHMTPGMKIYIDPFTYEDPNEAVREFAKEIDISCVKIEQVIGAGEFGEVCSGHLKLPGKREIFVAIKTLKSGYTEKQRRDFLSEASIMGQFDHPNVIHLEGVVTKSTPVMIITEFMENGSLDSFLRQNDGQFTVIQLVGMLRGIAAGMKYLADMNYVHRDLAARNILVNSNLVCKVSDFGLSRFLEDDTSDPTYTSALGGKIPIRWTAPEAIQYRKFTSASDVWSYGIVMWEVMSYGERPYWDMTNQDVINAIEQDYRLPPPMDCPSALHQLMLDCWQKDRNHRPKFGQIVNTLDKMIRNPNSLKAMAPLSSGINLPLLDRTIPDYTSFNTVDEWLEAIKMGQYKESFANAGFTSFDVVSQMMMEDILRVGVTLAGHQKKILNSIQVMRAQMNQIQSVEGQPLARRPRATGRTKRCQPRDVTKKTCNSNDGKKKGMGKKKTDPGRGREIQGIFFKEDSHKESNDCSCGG

EPHB3 (human) = EPHB3 (human) (UniProt P54753)
FES (human) = FES (human) (UniProt P07332)
[2] = tested on: FLT3 (human), P36888 [ITD]
FLT4 (human) = FLT4 (human) (UniProt P35916)
[3] = target: JAK1 JH2 pseudokinase (human) (UniProt P23458)
[4] = target: JAK3 JH1 catalytic (human) (UniProt P52333)
JAK3 JH1 catalytic (human), sequence (P52333 whole entry, looked up): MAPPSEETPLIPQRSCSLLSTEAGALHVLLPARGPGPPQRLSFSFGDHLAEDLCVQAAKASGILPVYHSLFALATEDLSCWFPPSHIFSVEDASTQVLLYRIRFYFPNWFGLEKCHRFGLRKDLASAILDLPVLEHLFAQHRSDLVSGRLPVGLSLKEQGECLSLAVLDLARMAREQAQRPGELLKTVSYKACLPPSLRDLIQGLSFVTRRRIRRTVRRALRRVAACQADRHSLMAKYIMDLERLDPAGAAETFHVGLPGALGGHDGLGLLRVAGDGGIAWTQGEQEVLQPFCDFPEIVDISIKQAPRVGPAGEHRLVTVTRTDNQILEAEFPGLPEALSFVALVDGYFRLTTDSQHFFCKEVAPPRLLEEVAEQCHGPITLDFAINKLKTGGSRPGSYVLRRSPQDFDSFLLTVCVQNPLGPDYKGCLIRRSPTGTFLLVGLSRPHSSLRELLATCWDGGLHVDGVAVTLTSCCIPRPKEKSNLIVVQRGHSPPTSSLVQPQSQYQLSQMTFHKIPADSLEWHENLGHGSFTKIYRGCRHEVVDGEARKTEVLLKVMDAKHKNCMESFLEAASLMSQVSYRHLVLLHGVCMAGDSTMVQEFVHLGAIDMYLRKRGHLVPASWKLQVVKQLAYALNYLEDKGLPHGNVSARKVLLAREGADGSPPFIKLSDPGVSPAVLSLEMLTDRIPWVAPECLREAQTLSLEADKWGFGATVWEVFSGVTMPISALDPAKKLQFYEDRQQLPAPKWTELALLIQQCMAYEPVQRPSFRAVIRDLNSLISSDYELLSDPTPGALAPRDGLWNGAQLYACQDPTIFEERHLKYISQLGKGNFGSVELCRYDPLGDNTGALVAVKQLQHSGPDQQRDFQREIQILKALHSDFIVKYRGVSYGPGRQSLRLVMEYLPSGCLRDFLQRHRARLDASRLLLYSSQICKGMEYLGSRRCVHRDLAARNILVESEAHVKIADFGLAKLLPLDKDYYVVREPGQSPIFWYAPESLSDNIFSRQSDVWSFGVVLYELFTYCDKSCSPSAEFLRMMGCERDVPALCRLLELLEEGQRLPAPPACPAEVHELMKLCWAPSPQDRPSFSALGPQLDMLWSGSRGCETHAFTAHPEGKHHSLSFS

LATS1 (human) = LATS1 (human) (UniProt O95835)
LATS2 (human) = LATS2 (human) (UniProt Q9NRM7)
LATS2 (human), sequence (Q9NRM7 whole entry, looked up): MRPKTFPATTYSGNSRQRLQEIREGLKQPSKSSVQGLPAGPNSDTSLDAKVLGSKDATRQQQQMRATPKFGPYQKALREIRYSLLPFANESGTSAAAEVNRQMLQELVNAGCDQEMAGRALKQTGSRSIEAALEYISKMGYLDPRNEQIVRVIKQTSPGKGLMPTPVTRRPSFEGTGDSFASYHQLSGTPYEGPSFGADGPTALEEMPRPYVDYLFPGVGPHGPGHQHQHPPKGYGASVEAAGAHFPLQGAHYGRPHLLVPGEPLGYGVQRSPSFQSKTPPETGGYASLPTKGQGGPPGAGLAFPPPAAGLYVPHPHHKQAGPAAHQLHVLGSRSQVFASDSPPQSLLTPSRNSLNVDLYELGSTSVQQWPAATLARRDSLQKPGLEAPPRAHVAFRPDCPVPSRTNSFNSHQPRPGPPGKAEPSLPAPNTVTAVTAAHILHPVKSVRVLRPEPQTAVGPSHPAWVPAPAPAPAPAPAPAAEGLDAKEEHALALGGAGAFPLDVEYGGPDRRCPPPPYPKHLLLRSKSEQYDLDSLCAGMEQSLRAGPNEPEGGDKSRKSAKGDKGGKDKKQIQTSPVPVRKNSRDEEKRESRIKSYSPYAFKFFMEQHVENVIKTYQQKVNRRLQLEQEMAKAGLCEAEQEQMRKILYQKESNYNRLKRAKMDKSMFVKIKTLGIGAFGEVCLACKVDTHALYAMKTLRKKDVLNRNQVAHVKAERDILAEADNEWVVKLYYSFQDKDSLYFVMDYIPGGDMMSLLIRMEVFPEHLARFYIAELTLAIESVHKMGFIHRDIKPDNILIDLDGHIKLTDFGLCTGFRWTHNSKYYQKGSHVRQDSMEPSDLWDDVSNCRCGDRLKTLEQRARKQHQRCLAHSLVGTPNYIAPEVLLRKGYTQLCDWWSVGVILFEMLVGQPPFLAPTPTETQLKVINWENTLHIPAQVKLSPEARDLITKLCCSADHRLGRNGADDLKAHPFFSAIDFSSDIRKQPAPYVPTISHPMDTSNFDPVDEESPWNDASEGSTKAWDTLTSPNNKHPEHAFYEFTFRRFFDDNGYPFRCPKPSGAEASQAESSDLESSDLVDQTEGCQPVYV

MAP3K11 (human) = MAP3K11 (human) (UniProt Q16584)
MAPK1 (human) = MAPK1 (human) (UniProt P28482)
MAPK1 (human), sequence (P28482 whole entry, looked up): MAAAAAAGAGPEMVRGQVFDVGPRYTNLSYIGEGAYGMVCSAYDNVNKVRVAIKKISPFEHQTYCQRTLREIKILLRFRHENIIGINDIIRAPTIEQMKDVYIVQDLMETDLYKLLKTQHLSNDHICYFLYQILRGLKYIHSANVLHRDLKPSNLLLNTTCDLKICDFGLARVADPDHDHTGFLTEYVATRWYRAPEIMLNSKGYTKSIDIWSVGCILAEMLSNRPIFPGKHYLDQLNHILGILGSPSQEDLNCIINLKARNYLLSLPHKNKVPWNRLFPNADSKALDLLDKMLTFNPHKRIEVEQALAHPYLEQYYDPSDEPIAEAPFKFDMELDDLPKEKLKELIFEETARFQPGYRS

MARK1 (human) = MARK1 (human) (UniProt Q9P0L2)
MST1R (human) = MST1R (human) (UniProt Q04912)
NEK1 (human) = NEK1 (human) (UniProt Q96PY6)
NEK2 (human) = NEK2 (human) (UniProt P51955)
PAK2 (human) = PAK2 (human) (UniProt Q13177)
PKN1 (human) = PKN1 (human) (UniProt Q16512)
PRKCD (human) = PRKCD (human) (UniProt Q05655)
PRKCE (human) = PRKCE (human) (UniProt Q02156)
RPS6KA1 KD1 (human) = RPS6KA1 KD1 (human) (UniProt Q15418)
SGK110 (human) = SGK110 (human) (UniProt P0C264)
SGK110 (human), sequence (P0C264 whole entry, looked up): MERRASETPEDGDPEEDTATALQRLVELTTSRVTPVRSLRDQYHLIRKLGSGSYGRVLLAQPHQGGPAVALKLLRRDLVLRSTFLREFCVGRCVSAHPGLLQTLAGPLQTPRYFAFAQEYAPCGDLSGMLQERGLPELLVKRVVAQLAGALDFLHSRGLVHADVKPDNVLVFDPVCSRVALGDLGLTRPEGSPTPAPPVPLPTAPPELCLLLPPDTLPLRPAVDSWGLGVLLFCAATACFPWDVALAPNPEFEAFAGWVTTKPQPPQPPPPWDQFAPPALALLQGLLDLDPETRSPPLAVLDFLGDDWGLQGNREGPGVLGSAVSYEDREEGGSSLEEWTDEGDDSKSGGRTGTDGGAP

SRPK1 (human) = SRPK1 (human) (UniProt Q96SB4)
STK16 (human) = STK16 (human) (UniProt O75716)
STK17A (human) = STK17A (human) (UniProt Q9UEE5)
STK17B (human) = STK17B (human) (UniProt O94768)
STK32C (human) = STK32C (human) (UniProt Q86UX6)
STK32C (human), sequence (Q86UX6 whole entry, looked up): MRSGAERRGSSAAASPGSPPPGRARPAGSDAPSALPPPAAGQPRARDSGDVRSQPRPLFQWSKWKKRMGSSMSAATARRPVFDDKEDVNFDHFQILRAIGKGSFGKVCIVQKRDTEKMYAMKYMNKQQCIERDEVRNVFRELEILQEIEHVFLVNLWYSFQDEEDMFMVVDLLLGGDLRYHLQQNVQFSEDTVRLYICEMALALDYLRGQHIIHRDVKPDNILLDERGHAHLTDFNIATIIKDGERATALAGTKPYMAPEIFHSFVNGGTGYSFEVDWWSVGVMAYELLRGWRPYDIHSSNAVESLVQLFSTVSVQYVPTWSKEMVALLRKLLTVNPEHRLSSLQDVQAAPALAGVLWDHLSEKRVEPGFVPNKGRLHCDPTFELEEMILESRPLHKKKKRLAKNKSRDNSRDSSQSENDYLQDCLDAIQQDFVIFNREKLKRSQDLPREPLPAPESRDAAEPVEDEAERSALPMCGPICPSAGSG

BMPR1B (human), sequence (O00238 whole entry, looked up): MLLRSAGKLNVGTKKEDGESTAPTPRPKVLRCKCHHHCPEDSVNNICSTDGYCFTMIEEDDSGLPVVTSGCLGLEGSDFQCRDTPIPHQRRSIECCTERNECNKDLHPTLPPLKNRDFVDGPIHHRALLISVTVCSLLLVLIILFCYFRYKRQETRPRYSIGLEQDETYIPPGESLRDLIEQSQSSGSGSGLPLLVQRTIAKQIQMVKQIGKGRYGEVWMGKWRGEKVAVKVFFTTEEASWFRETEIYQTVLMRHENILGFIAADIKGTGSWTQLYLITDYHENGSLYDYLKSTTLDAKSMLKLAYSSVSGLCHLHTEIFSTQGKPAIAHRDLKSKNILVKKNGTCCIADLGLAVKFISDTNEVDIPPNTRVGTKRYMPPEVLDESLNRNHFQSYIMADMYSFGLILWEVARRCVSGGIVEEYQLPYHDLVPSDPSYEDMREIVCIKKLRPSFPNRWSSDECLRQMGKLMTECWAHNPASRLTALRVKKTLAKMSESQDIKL

SMILES | kinase still bound, per cent of control (AAK1 (human)) | kinase still bound, per cent of control (AKT3 (human)) | kinase still bound, per cent of control (ANKK1 (human)) | kinase still bound, per cent of control (BLK (human)) | kinase still bound, per cent of control (BMPR1B (human)) | kinase still bound, per cent of control (CAMK2D (human)) | kinase still bound, per cent of control (CAMKK2 (human)) | kinase still bound, per cent of control (CDC2L2 (human)) | kinase still bound, per cent of control (CDK17 (human)) | kinase still bound, per cent of control (CHEK1 (human)) | kinase still bound, per cent of control (CLK1 (human)) | kinase still bound, per cent of control (CSNK1G1 (human)) | kinase still bound, per cent of control (DMPK (human)) | kinase still bound, per cent of control [1] | kinase still bound, per cent of control (EPHB2 (human)) | kinase still bound, per cent of control (EPHB3 (human)) | kinase still bound, per cent of control (FES (human)) | kinase still bound, per cent of control [2] | kinase still bound, per cent of control (FLT4 (human)) | kinase still bound, per cent of control [3] | other results
O=C1Nc2ccc(I)cc2/C1=C/c1cc(Br)c(O)c(Br)c1 | 5.2% | 100% | 12% | 41% | 27% | 41% | 9% | 73% | 87% | 100% | 34% | 69% | 100% | 78% | 100% | 100% | 95% | 33% | 100% | 0.55% | kinase still bound, per cent of control [4]: 14%; kinase still bound, per cent of control (LATS1 (human)): 44%; kinase still bound, per cent of control (LATS2 (human)): 81%; kinase still bound, per cent of control (MAP3K11 (human)): 38%; kinase still bound, per cent of control (MAPK1 (human)): 87%; kinase still bound, per cent of control (MARK1 (human)): 99%; kinase still bound, per cent of control (MST1R (human)): 100%; kinase still bound, per cent of control (NEK1 (human)): 87%; kinase still bound, per cent of control (NEK2 (human)): 100%; kinase still bound, per cent of control (PAK2 (human)): 53%; kinase still bound, per cent of control (PKN1 (human)): 89%; kinase still bound, per cent of control (PRKCD (human)): 70%; kinase still bound, per cent of control (PRKCE (human)): 100%; kinase still bound, per cent of control (RPS6KA1 KD1 (human)): 42%; kinase still bound, per cent of control (SGK110 (human)): 100%; kinase still bound, per cent of control (SRPK1 (human)): 40%; kinase still bound, per cent of control (STK16 (human)): 90%; kinase still bound, per cent of control (STK17A (human)): 2.5%; kinase still bound, per cent of control (STK17B (human)): 40%; kinase still bound, per cent of control (STK32C (human)): 98%
CN(C)C/C=C/C(=O)Nc1cccc(Nc2ncc3c(n2)N(C)c2ccccc2C(=O)N3C)c1 | 20% | 100% | 6% | 0.7% | 84% | 62% | 8.1% | 100% | 80% | 8.5% | 50% | 47% | 32% | 62% | 100% | 88% | 67% | 9.4% | 100% | 0.25% | kinase still bound, per cent of control [4]: 1.2%; kinase still bound, per cent of control (LATS1 (human)): 100%; kinase still bound, per cent of control (LATS2 (human)): 97%; kinase still bound, per cent of control (MAP3K11 (human)): 100%; kinase still bound, per cent of control (MAPK1 (human)): 100%; kinase still bound, per cent of control (MARK1 (human)): 4.3%; kinase still bound, per cent of control (MST1R (human)): 93%; kinase still bound, per cent of control (NEK1 (human)): 69%; kinase still bound, per cent of control (NEK2 (human)): 62%; kinase still bound, per cent of control (PAK2 (human)): 67%; kinase still bound, per cent of control (PKN1 (human)): 69%; kinase still bound, per cent of control (PRKCD (human)): 100%; kinase still bound, per cent of control (PRKCE (human)): 67%; kinase still bound, per cent of control (RPS6KA1 KD1 (human)): 67%; kinase still bound, per cent of control (SGK110 (human)): 0.25%; kinase still bound, per cent of control (SRPK1 (human)): 23%; kinase still bound, per cent of control (STK16 (human)): 8.4%; kinase still bound, per cent of control (STK17A (human)): 97%; kinase still bound, per cent of control (STK17B (human)): 100%; kinase still bound, per cent of control (STK32C (human)): 93%
N#Cc1c(NC(=O)c2cccc3ccccc23)sc2c1CCCC2 | 91% | 82% | 78% | 91% | 84% | 93% | 94% | 100% | 93% | 82% | 69% | 50% | 83% | 82% | 75% | 98% | 100% | 97% | 91% | 90% | kinase still bound, per cent of control [4]: 98%; kinase still bound, per cent of control (LATS1 (human)): 93%; kinase still bound, per cent of control (LATS2 (human)): 75%; kinase still bound, per cent of control (MAP3K11 (human)): 98%; kinase still bound, per cent of control (MAPK1 (human)): 89%; kinase still bound, per cent of control (MARK1 (human)): 100%; kinase still bound, per cent of control (MST1R (human)): 95%; kinase still bound, per cent of control (NEK1 (human)): 100%; kinase still bound, per cent of control (NEK2 (human)): 65%; kinase still bound, per cent of control (PAK2 (human)): 97%; kinase still bound, per cent of control (PKN1 (human)): 94%; kinase still bound, per cent of control (PRKCD (human)): 100%; kinase still bound, per cent of control (PRKCE (human)): 100%; kinase still bound, per cent of control (RPS6KA1 KD1 (human)): 100%; kinase still bound, per cent of control (SGK110 (human)): 91%; kinase still bound, per cent of control (SRPK1 (human)): 100%; kinase still bound, per cent of control (STK16 (human)): 89%; kinase still bound, per cent of control (STK17A (human)): 100%; kinase still bound, per cent of control (STK17B (human)): 100%; kinase still bound, per cent of control (STK32C (human)): 97%
